pEC50, pKd: −log10 of the molar value. Structures can show the parent of a compound that is named as a salt.
Tests used:
human GC-A = molecular target: T1, human GC-A (Homo sapiens, UniProt P16066); experiment: EC50 and Emax cGMP determination, HTRF, human GC-A overexpressing HEK293 cells; assay type: cell-based; details: for pEC50: EC20 ANP, read-out: EC50 cGMP activities; for EMax cGMP activities / Emax: 100% = saturating ANP (10 nM), 0% = EC20 ANP; for Emax: HEK293, HEK293 GC-A cells, read-out: EMax cGMP activities
T1 construct: host or cells: HEK293
T1 sequence (P16066 33-1061): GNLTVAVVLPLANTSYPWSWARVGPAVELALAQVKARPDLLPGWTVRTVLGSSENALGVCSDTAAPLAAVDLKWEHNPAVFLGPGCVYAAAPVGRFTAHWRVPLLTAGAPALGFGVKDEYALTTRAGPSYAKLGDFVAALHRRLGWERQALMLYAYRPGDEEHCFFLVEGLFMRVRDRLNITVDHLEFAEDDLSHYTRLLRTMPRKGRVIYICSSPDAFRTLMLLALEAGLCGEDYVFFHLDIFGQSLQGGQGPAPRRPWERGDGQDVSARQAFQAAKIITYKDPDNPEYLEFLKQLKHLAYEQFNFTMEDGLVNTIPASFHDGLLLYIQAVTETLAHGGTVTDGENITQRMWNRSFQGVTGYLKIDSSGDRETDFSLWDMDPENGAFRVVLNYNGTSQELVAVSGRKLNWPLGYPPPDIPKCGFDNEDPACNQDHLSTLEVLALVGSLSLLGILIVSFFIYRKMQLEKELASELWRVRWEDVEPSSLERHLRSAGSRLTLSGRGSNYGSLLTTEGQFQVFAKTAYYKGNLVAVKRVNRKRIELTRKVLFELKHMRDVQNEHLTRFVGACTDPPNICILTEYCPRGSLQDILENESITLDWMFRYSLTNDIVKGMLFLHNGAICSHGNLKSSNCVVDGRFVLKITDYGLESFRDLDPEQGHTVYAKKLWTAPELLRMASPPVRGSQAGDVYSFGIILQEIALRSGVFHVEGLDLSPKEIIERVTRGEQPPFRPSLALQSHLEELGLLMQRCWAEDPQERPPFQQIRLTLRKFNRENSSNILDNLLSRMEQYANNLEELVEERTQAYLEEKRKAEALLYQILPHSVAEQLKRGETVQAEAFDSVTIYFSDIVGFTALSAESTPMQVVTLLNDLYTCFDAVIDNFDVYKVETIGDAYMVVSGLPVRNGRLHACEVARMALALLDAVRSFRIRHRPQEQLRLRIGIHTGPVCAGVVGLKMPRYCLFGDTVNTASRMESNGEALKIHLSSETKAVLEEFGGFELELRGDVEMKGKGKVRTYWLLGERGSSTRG
T1 sequence (P01160 124-151 partner limits assumed): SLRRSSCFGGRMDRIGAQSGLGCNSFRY
Experimental: Test compounds were evaluated for potentiation of cGMP in human GC-A overexpressing HEK293 cells (Cardiorenal Research Laboratory, Mayo Clinic). Test compounds at 10 mM DMSO stock concentration were dispensed into 384 well small volume white plates using Tecan D300e digital dispenser starting at 5 μM or 40 μM concentration and diluted 2-fold for 10-point concentration response. Wells were backfilled with DMSO such that the final concentration of DMSO in all wells was maintained at 0.3% DMSO. Atrial natriuretic peptide (ANP, Phoenix Pharmaceuticals) ANP was prepared as working stock aliquots at 5 μM in phosphate-buffered solution (PBS) with 0.1% bovine serum albumin (BSA) and diluted to […] in buffer plus Tween20 at 0.3% and added to plates to a final concentration equivalent to EC20 ANP in the cGMP assay. GC-A cells in suspension ([…]) in OptiMem media (ThermoFisher 11058-021) supplemented with 2% fetal bovine serum were plated at 1×10^6 cells/mL and assay plates were spun at 1000 rpm for 30 sec and incubated at room temperature for 30 min. GC-A-mediated activation of cGMP production was measured using cGMP CisBio detection homogenous time-resolved florescence (HTRF) competition assay using labeled-cGMP in human GC-A-overexpressing HEK293 cells. 5 μL of d-2 acceptor was dispensed into each well followed by addition of 5 μL of Anti-cGMP Eu-Cryptate antibody donor and plates were spun at 1000 rpm for 30 sec and incubated in the dark at room temperature for 1 hr. HTRF florescence was read on the ClarioStar microplate reader (BMG). A 100% response was determined from wells in the absence of compound and presence of saturating concentration of ANP (10 nM), and 0) % response was determined from wells containing an EC20 concentration of ANP determined for each new lot of ANP. Concentration-response curves for test compounds were analyzed by […] analysis using GraphPad software to determine EC50 and Emax values.

[1] = molecular target: T2, extracellular domain human GC-A recombinant protein (Homo sapiens, UniProt P16066); experiment: Surface plasmon resonance binding to GC-A receptor; details: acetate salt; for pKd: SPR 25° C., 1:1 Langmuir model
T2 construct: extracellular domain human GC-A recombinant protein; purchased My BioSource, Inc. San Diego, CA
T2 sequence (P16066 33-473 limits assumed): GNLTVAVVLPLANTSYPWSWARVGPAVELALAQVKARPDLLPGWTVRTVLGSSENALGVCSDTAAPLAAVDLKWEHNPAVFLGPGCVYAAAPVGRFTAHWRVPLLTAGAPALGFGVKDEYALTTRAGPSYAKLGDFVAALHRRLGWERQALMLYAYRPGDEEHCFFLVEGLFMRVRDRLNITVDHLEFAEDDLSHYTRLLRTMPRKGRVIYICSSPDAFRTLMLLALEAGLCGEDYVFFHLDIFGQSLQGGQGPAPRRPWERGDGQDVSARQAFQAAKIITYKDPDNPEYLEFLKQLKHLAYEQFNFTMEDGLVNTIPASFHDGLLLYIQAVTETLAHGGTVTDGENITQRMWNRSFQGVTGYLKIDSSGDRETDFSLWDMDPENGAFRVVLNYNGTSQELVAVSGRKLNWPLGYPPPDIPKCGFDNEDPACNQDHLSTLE
Experimental: Surface plasmon resonance (SPR) measurements were performed at 25° C. on a BI-4500 SPR instrument (Biosensing Instrument Inc. Tempe AZ). As per the instructions by the Biosensing instrument manual, 400 mM nickel sulfate in deionized water was linked to the Ni-NTA sensor chip (Biosensing Instrument Inc. Tempe AZ. Then 30 μg/ml of extracellular domain human GC-A recombinant protein (My BioSource, Inc. San Diego, CA), containing 12 histidine residues on the C-terminus, was then immobilized to the nickel sulfate on the Ni-NTA sensor chip. After, the chip was washed with buffer (150 mM NaCl, 50 μM EDTA pH 7.4, 0).1% DMSO), then 100 μL of sequentially diluted Compound 3 acetate salt (0.125, 0.25, 0.5, 1, 2 μM), Compound 1 acetate salt (6.25, 12.5, 25, 50, 100 nM) or Compound 2 acetate salt (0.125, 0.25, 0.5, 1, 2 μM) was injected at the rate of 60 ul/min and allowed to dissociate for 60 seconds. Data was collected as sensorgrams. Binding kinetics were derived from sensorgrams using BI-Data Analysis Program (Biosensing Instrument, Tempe AZ). Affinity analysis of GC-A with Compound 3, Compound 2 and/or Compound 1 interactions were performed using a 1:1 Langmuir binding model. Two series were performed for all studies.

[2] = system: Primary Human cardiomyocytes; experiment: cGMP levels (ELISA) in human cardiomyocytes; assay type: cell-based; details: acetate salt, 1 or 10 μM, ANP (10^-10 M), vs vehicle
Experimental: Primary Human cardiomyocytes (HCMs: Catalog No. 6200, Lot No. 6288, PromoCell) were maintained and subcultured according to the manufacturer's protocols. Passage 5 was used in the study. Treatment buffer, Compound 3, Compound 1 and Compound 2 acetate salt, ANP, and vehicle were prepared as described above. Briefly, 5×10^5 of cells/well were grown in 6-well plates until 80 to 90% confluency and were then pretreated with vehicle or Compound 3, Compound 1 or Compound 2 at doses of 1 or 10 μM for 5 min at 37° C., then cells were treated with ANP (10^-10 M) for an additional 10 min at 37° C. Afterward, all cells were washed with PBS once and lysed with 0.1 M HCl at room temperature, and intracellular cGMP levels were measured in the lysate using a commercial cGMP ELISA kit (Enzo Life Sciences) with the acetylation method as instructed by the manufacturer.

SMILES | pEC50 (human GC-A; HEK293 GC-A cells) | EMax cGMP activities (human GC-A; HEK293 GC-A cells) | pKd [1] | Emax (human GC-A) | binding for the GC-A receptor compared with Compound 3 and Compound 2 acetate salts ([1]; SPR) | cGMP generation in HCMs in the presence of ANP [2] | potency in potentiating ANP-mediated cGMP generation (comparison between forms/enantiomers) (human GC-A; HEK293 GC-A cells)
CN(C)CCN1CCC[C@H](C(=O)Nc2nc3c(F)cc(F)cc3s2)C1 [Compound 1 TFA salt, (S)-N-(4,6-difluorobenzo[d]thiazol-2-yl)-1-(2-(dimethylamino)ethyl) piperidine-3-carboxamide] | 6.80 | 75.3% | – | – | – | – | –
CN(C)CCN1CCC[C@@H](C(=O)Nc2nc3c(F)cc(F)cc3s2)C1 [Compound 2 acetate salt, (R)-N-(4,6-difluoro-1,3-benzothiazol-2-yl)-1-[2-(dimethylamino)ethyl]piperidine-3-carboxamide] | 5.88 | 73.1% | 6.92 | – | – | – | –
CN(C)CCN1CCC[C@@H](C(=O)Nc2nc3c(F)cc(F)cc3s2)C1 [Compound 2 TFA salt, (R)-N-(4,6-difluorobenzo[d]thiazol-2-yl)-1-(2-(dimethylamino)ethyl) piperidine-3-carboxamide] | 6.14 | – | – | 82.7% | – | – | –
CN(C)CCN1CCC[C@H](C(=O)Nc2nc3c(F)cc(F)cc3s2)C1 [Compound 1 acetate salt, (S)-N-(4,6-difluoro-1,3-benzothiazol-2-yl)-1-[2-(dimethylamino)ethyl]piperidine-3-carboxamide] | 6.82 | – | 7.92 | 81.5% | greater binding | – | –
CN(C)CCN1CCCC(C(=O)Nc2nc3c(F)cc(F)cc3s2)C1 (racemic) [Compound 3 acetate salt, N-(4,6-difluoro-1,3-benzothiazol-2-yl)-1-[2-(dimethylamino)ethyl]piperidine-3-carboxamide] | 6.49 | 84.0% | 6.75 | – | – | dose dependent increase | more potent
CN(C)CCN1CCCC(C(=O)Nc2nc3c(F)cc(F)cc3s2)C1 (racemic) [Compound 3 TFA salt, N-(4,6-difluorobenzo[d]thiazol-2-yl)-1-(2-(dimethylamino)ethyl) piperidine-3-carboxamide] | 6.24 | – | – | 95.8% | – | – | –

Reference: patent US20250026746A1, “ENHANCERS OF PARTICULATE GUANYLYL CYCLASE RECEPTOR A” (Mayo Foundation for Medical Education and Research, priority 2021, published 2025)
